According to patent publication US20100047371A1, “COMPOSITIONS AND METHODS FOR ORAL CANCER CHEMOPREVENTION USING BERRY PREPARATIONS AND EXTRACTS” (priority 2006, published 2010):

How the values were obtained:
[1] = Human pharmacokinetic study: anthocyanins in saliva and peripheral blood after topical gel application; assay type: in vivo; conditions: for Anthocyanin concentration in saliva / Anthocyanin concentration in peripheral blood: 1.0 g 5% FBR Gel, pH 6.5 topical to floor of mouth; for Anthocyanin concentration in saliva: saliva collected 2-5 min after application; for Anthocyanin concentration in peripheral blood: blood drawn five minutes after application
Procedure: Anthocyanin content in sera, saliva, and tissue explants was evaluated by an HPLC-MS assay. The respective samples (sera, saliva or tissue homogenates) were dissolved in 90% solvent A (water plus 1% formic acid) and 10% solvent B (acetonitrile plus 1% formic acid) and then separated on a Symmetry C18 reversed-phase column and analyzed using a Waters 2695 gradient HPLC separation module equipped with a 996 photodiode-array (PDA) UV/visible absorbance detector (Milford, Mass.). The solvent system consisted of a step gradient from 90% A to 50% B over 15 minutes, and the absorption spectra were recorded from 200-800 nm with the inline PDA detector. Mass spectrometry was conducted on a quadrupole ion tunnel mass spectrometer equipped with a Z-spray ESI source. Explant protein levels were determined by the Lowry method, using bovine γ-globulin as the standard protein [Lippman et al., 1993].
Next, evaluation of anthocyanin uptake into human oral mucosa from FBR gels prepared as described in Example 1 was undertaken. For in-vivo studies, participation of human subjects was conducted in accordance with an IRB approved protocol. […] For the phamacokinetic analyses, nine consenting adult volunteers dried the anterior floor of their mouth, placed 1.0 g of 5% berry gel (pH 6.5), and massaged the gel in place for 30 seconds to facilitate uptake. Two minutes after gel application saliva was collected for the next three minutes. Peripheral blood was drawn five minutes after gel application. Following clotting, sera samples were collected, and both the sera and saliva samples were stored at −80° C. until LC-MS analysis as described below.
All nine participants had detectable anthocyanin levels of three anthocyanins (cyanidin 3-rutinoside, cyanidin 3-xylosylrutinoside, cyanidin 3-glucoside) in either their saliva or blood, and 4 donors had detectable levels of two anthocyanins (cyanidin 3-rutinoside and cyanidin 3-xylosylrutinoside) in their peripheral blood. Saliva from eight of the nine donors contained detectable levels of either two (cyanidin 3-rutinoside and cyanidin 3-xylosylrutinoside-4 donors) or three anthocyanins (4 donors).

[2] = system: Human Oral Mucosa Explant Tissues; assay: Effect of final gel pH on anthocyanin uptake into human oral mucosa explant tissues; assay type: in vitro ADME; conditions: 10% w/w FBR gel; for Anthocyanin uptake, Gel pH 3.5, Avg. ± SEM / Anthocyanin uptake, Gel pH 6.5, Avg. ± SEM: average of eleven explant samples; for % change 3.5 to 6.5, Avg. ± SEM: average of explant samples
Procedure: Anthocyanin content in sera, saliva, and tissue explants was evaluated by an HPLC-MS assay. The respective samples (sera, saliva or tissue homogenates) were dissolved in 90% solvent A (water plus 1% formic acid) and 10% solvent B (acetonitrile plus 1% formic acid) and then separated on a Symmetry C18 reversed-phase column and analyzed using a Waters 2695 gradient HPLC separation module equipped with a 996 photodiode-array (PDA) UV/visible absorbance detector (Milford, Mass.). The solvent system consisted of a step gradient from 90% A to 50% B over 15 minutes, and the absorption spectra were recorded from 200-800 nm with the inline PDA detector. Mass spectrometry was conducted on a quadrupole ion tunnel mass spectrometer equipped with a Z-spray ESI source. Explant protein levels were determined by the Lowry method, using bovine γ-globulin as the standard protein [Lippman et al., 1993]. Tissue explants, specifically human oral mucosal explants, were used to determine the in vitro effects of FBR content and pH on anthocyanin uptake. Human oral tissues for the tissue explant studies were obtained from consenting volunteers who were undergoing elective oral surgery procedures. To confirm “no pathologic diagnosis”, a portion of each of these tissues was submitted for light microscopic evaluation. […] Tissues for explant experiments were immediately placed in an artificial saliva transport medium, which also served as the incubation medium for the gel absorption studies. The composition of the artificial saliva used for tissue transport and incubation was (final concentrations): sodium carboxymethylcellulose (0.5%), sorbitol (165 mM), NaCl (14 mM), KCl (16 mM), calcium chloride dehydrate (1.0 mM), MgCl2 (0.63 mM), Trizma hydrochloride (2.0 mM). Tissues from eight donors were used for preliminary studies to compare the penetration of anthocyanins from the 5% berry gel and the 10% FBR gel, both at a final pH of 6.5. In order to account for heterogeneity among human donors, tissue samples were hemisected. One tissue portion treated with 5% and the other with 10% FBR gels. One gram of gel (containing either 5% or 10% w/w FBR) was placed on the epithelial surface of the explant, followed by gently rubbing of the site for 30 seconds to facilitate uptake. Explants were then placed into artificial saliva, incubated for 30 minutes (37° C., 5% CO2), and then frozen at −80° C. until HPLC-mass spectroscopy analyses as previously reported [Rodrigo et al., in press]. Tissue preparation for HPLC analyses consisted of homogenization of the entire oral mucosal specimen, removal of an aliquot for sample protein level determination, followed by the addition of collagenase type II (0.1 mg/mL, GIBCO, Grand Island, N.Y.) and 1% formic acid. Samples were then placed on a Sep Pack (Millipore, Billerica, Mass.), eluted with methanol, and dried under argon gas. Additional oral mucosal explant studies were conducted to compare the effect of FBR gel pH on absorption into oral mucosal explants. Tissues from eleven donors were used for these studies, and handling was as described above with the exception that all gels contained 10% w/w FBR and were formulated at a final pH of 3.5 or 6.5. […] Large differences (up to 15-fold) in detectable anthocyanin levels were found in the gel treated donor tissues; findings that likely reflect the extensive heterogeneity within human tissues that affects tissue penetrative abilities.

C[C@@H]1O[C@@H](OC[C@H]2O[C@@H](Oc3cc4c(O)cc(O)cc4[o+]c3-c3ccc(O)c(O)c3)[C@H](O)[C@@H](O)[C@@H]2O)[C@H](O)[C@H](O)[C@H]1O [cyanidin 3-rutinoside]
number of donors with detectable levels in peripheral blood ([1]; of nine participants, 5% berry gel (pH 6.5), five minutes after application): 4 donors | Anthocyanin concentration in saliva ([1]; patient 101): 3.5 pmol/mL | Anthocyanin concentration in saliva ([1]; patient 102): 1.7 pmol/mL | Anthocyanin concentration in peripheral blood ([1]; patient 103): 2.3 pmol/mL | Anthocyanin concentration in saliva ([1]; patient 104): 4.6 pmol/mL | Anthocyanin concentration in peripheral blood ([1]; patient 105): 7.4 pmol/mL | Anthocyanin concentration in saliva ([1]; patient 105): 8.3 pmol/mL | Anthocyanin concentration in peripheral blood ([1]; patient 106): 5.6 pmol/mL | Anthocyanin concentration in saliva ([1]; patient 106): 6.1 pmol/mL | Anthocyanin concentration in peripheral blood ([1]; patient 107): 5.8 pmol/mL | Anthocyanin concentration in saliva ([1]; patient 107): 9.3 pmol/mL | Anthocyanin concentration in saliva ([1]; patient 108): 4.2 pmol/mL | Anthocyanin concentration in saliva ([1]; patient 109): 2.2 pmol/mL | Anthocyanin uptake, Gel pH 3.5, Avg. ± SEM [2]: 31.9 pmol per mg tissue | Anthocyanin uptake, Gel pH 6.5, Avg. ± SEM [2]: 113.0 pmol per mg tissue | % change 3.5 to 6.5, Avg. ± SEM [2]: 956.3% | % change 3.5 to 6.5 ([2]; explant sample 001): 474.1% | Anthocyanin uptake, Gel pH 3.5 ([2]; explant sample 001): 116.4 pmol per mg tissue | Anthocyanin uptake, Gel pH 6.5 ([2]; explant sample 001): 668.3 pmol per mg tissue | % change 3.5 to 6.5 ([2]; explant sample 002): 627.2% | Anthocyanin uptake, Gel pH 3.5 ([2]; explant sample 002): 9.3 pmol per mg tissue | Anthocyanin uptake, Gel pH 6.5 ([2]; explant sample 002): 67.8 pmol per mg tissue | % change 3.5 to 6.5 ([2]; explant sample 003): −14.8% | Anthocyanin uptake, Gel pH 3.5 ([2]; explant sample 003): 34.3 pmol per mg tissue | Anthocyanin uptake, Gel pH 6.5 ([2]; explant sample 003): 29.2 pmol per mg tissue | % change 3.5 to 6.5 ([2]; explant sample 004): −64.4% | Anthocyanin uptake, Gel pH 3.5 ([2]; explant sample 004): 26.3 pmol per mg tissue | Anthocyanin uptake, Gel pH 6.5 ([2]; explant sample 004): 9.4 pmol per mg tissue | % change 3.5 to 6.5 ([2]; explant sample 005): −20.0% | Anthocyanin uptake, Gel pH 3.5 ([2]; explant sample 005): 3.5 pmol per mg tissue | Anthocyanin uptake, Gel pH 6.5 ([2]; explant sample 005): 2.8 pmol per mg tissue | % change 3.5 to 6.5 ([2]; explant sample 006): 362.1% | Anthocyanin uptake, Gel pH 3.5 ([2]; explant sample 006): 45.7 pmol per mg tissue | Anthocyanin uptake, Gel pH 6.5 ([2]; explant sample 006): 211.1 pmol per mg tissue | % change 3.5 to 6.5 ([2]; explant sample 007): 45.1% | Anthocyanin uptake, Gel pH 3.5 ([2]; explant sample 007): 5.6 pmol per mg tissue | Anthocyanin uptake, Gel pH 6.5 ([2]; explant sample 007): 8.1 pmol per mg tissue | % change 3.5 to 6.5 ([2]; explant sample 008): 8905.1% | Anthocyanin uptake, Gel pH 3.5 ([2]; explant sample 008): 0.4 pmol per mg tissue | Anthocyanin uptake, Gel pH 6.5 ([2]; explant sample 008): 35.1 pmol per mg tissue | % change 3.5 to 6.5 ([2]; explant sample 009): 395.1% | Anthocyanin uptake, Gel pH 3.5 ([2]; explant sample 009): 43.9 pmol per mg tissue | Anthocyanin uptake, Gel pH 6.5 ([2]; explant sample 009): 207.4 pmol per mg tissue | % change 3.5 to 6.5 ([2]; explant sample 010): −91.4% | Anthocyanin uptake, Gel pH 3.5 ([2]; explant sample 010): 37.1 pmol per mg tissue | Anthocyanin uptake, Gel pH 6.5 ([2]; explant sample 010): 3.2 pmol per mg tissue | % change 3.5 to 6.5 ([2]; explant sample 011): −98.7% | Anthocyanin uptake, Gel pH 3.5 ([2]; explant sample 011): 28.7 pmol per mg tissue | Anthocyanin uptake, Gel pH 6.5 ([2]; explant sample 011): 0.4 pmol per mg tissue

OC[C@H]1O[C@@H](Oc2cc3c(O)cc(O)cc3[o+]c2-c2ccc(O)c(O)c2)[C@H](O)[C@@H](O)[C@@H]1O [cyanidin 3-glucoside]
Anthocyanin concentration in saliva ([1]; patient 104): 11.2 pmol/mL | Anthocyanin concentration in saliva ([1]; patient 105): 9.7 pmol/mL | Anthocyanin concentration in saliva ([1]; patient 107): 19.7 pmol/mL | Anthocyanin concentration in saliva ([1]; patient 109): 22.8 pmol/mL | Anthocyanin uptake, Gel pH 3.5, Avg. ± SEM [2]: 29.6 pmol per mg tissue | Anthocyanin uptake, Gel pH 6.5, Avg. ± SEM [2]: 50.2 pmol per mg tissue | % change 3.5 to 6.5, Avg. ± SEM [2]: 85.6% | % change 3.5 to 6.5 ([2]; explant sample 001): 131.6% | Anthocyanin uptake, Gel pH 3.5 ([2]; explant sample 001): 128.1 pmol per mg tissue | Anthocyanin uptake, Gel pH 6.5 ([2]; explant sample 001): 296.6 pmol per mg tissue | % change 3.5 to 6.5 ([2]; explant sample 002): 36.2% | Anthocyanin uptake, Gel pH 3.5 ([2]; explant sample 002): 13.6 pmol per mg tissue | Anthocyanin uptake, Gel pH 6.5 ([2]; explant sample 002): 18.5 pmol per mg tissue | % change 3.5 to 6.5 ([2]; explant sample 003): −16.6% | Anthocyanin uptake, Gel pH 3.5 ([2]; explant sample 003): 14.4 pmol per mg tissue | Anthocyanin uptake, Gel pH 6.5 ([2]; explant sample 003): 12.0 pmol per mg tissue | % change 3.5 to 6.5 ([2]; explant sample 004): 653.5% | Anthocyanin uptake, Gel pH 3.5 ([2]; explant sample 004): 1.6 pmol per mg tissue | Anthocyanin uptake, Gel pH 6.5 ([2]; explant sample 004): 12.0 pmol per mg tissue | % change 3.5 to 6.5 ([2]; explant sample 005): 65.3% | Anthocyanin uptake, Gel pH 3.5 ([2]; explant sample 005): 32.0 pmol per mg tissue | Anthocyanin uptake, Gel pH 6.5 ([2]; explant sample 005): 52.9 pmol per mg tissue | % change 3.5 to 6.5 ([2]; explant sample 006): 91.3% | Anthocyanin uptake, Gel pH 3.5 ([2]; explant sample 006): 31.5 pmol per mg tissue | Anthocyanin uptake, Gel pH 6.5 ([2]; explant sample 006): 60.3 pmol per mg tissue | % change 3.5 to 6.5 ([2]; explant sample 007): 34.5% | Anthocyanin uptake, Gel pH 3.5 ([2]; explant sample 007): 17.0 pmol per mg tissue | Anthocyanin uptake, Gel pH 6.5 ([2]; explant sample 007): 22.8 pmol per mg tissue | % change 3.5 to 6.5 ([2]; explant sample 008): −40.7% | Anthocyanin uptake, Gel pH 3.5 ([2]; explant sample 008): 33.2 pmol per mg tissue | Anthocyanin uptake, Gel pH 6.5 ([2]; explant sample 008): 19.7 pmol per mg tissue | % change 3.5 to 6.5 ([2]; explant sample 009): 113.9% | Anthocyanin uptake, Gel pH 3.5 ([2]; explant sample 009): 21.2 pmol per mg tissue | Anthocyanin uptake, Gel pH 6.5 ([2]; explant sample 009): 45.3 pmol per mg tissue | % change 3.5 to 6.5 ([2]; explant sample 010): −66.9% | Anthocyanin uptake, Gel pH 3.5 ([2]; explant sample 010): 13.9 pmol per mg tissue | Anthocyanin uptake, Gel pH 6.5 ([2]; explant sample 010): 4.6 pmol per mg tissue | % change 3.5 to 6.5 ([2]; explant sample 011): −60.1% | Anthocyanin uptake, Gel pH 3.5 ([2]; explant sample 011): 18.9 pmol per mg tissue | Anthocyanin uptake, Gel pH 6.5 ([2]; explant sample 011): 7.5 pmol per mg tissue
